Assay results taken from patent US4177264A, “N-benzyl anthracyclines” (priority 1978, dated 1979).
Like-named read-outs stand apart in the source and are kept apart here.

Legend:
isolated helical DNA = experiment: ΔTm of isolated helical DNA (DNA-binding); settings: difference in DNA melting temperature with and without drug; ~1° weak binding if any, ≥5° significant binding
From the text: (§1) Sufficient samples of all but compound (VIII) have been obtained for biological screening, and recent results of tests both in vitro and in vivo are shown in Table 2 below. […] The in vitro results are surprising and appear to be highly significant in that there is an abrupt and unexpected loss of DNA-binding properties in going from N-benzyl to N,N-dibenzyl compounds. ΔTm is the most direct measure of DNA-binding but the inhibition of nucleic acid synthesis is also lost. Most of the anthracyclines bind to DNA, presumably by an intercalation mechanism and are mutagenic. In these N,N-dibenzyl compounds the anti-tumor activity in the mouse screen is retained but the DNA-binding properties are lost.
^b ΔTm values represent the difference in temperature
between that at which the DNA denatures (or melts) without the drug and
that at which denaturing occurs in the presence of the drug;

L1210 Cells [1] = experiment: Inhibition of DNA synthesis in L1210 cells; format: cell-based; settings: Mus musculus
From the text: (§2) ^c Assay described in G. Tong, W. W. Lee, D. R. Black and D. W. Henry

L1210 Cells [2] = experiment: Inhibition of RNA synthesis in L1210 cells; format: cell-based; settings: Mus musculus
From the text: as §2

leukemia P388 = experiment: Ip P388 leukemia in mice, survival time (NCI Protocol 1,200); format: in vivo; settings: for response vs control in vivo at 37.5 mg/kg: q4d 5,9,13, 37.5 mg/kg (optimum dose); for response vs control in vivo at 8 mg/kg: q4d 5,9,13, 8 mg/kg
From the text: as §1
Highest Mean T/C vs P388 in
^d Ip P388 leukemia treated ip on QD1-9 and Q4D 5,9,13 schedules
according to standard NCI protocols. Assay described in R. I. Geran, N. H
Greenberg, M. M. MacDonald, A. M. Schumacker and B. J. Abbott, Cancer
Chemother. Rep., Part 3, 3, (No. 2), 9 (1972), Protocol 1,200. T/C = rati
of survival time of treated mice to that of untreated controls times 100.
Untreated controls survive about 9 days. For Dnm and Adm, % T/C values ar
means from several dozen tests, with standard deviation up to ±40. For
the Nbenzyl compounds, % T/C values are means from all the tests (1 to 3)
so far, at the optimum dose.

[3] = L1210 cells, DNA synthesis, read-out: Inhib of Synth, DNA, ED50
[4] = L1210 cells, RNA synthesis, read-out: Inhib of Synth, RNA, ED50
[5] = Mus musculus, P388, ip, qd 1-9, 6.25 mg/kg (optimum dose), mean from 1 to 3 tests, read-out: Highest Mean T/C vs P388 in Mice
[6] = Mus musculus, P388, ip, mean from 1 to 3 tests, read-out: Highest Mean T/C vs P388 in Mice
[7] = Mus musculus, P388, ip, mean from several dozen tests, SD up to ±40, read-out: Highest Mean T/C vs P388 in Mice
[8] = L1210, read-out: Inhib of Synth, DNA, ED50
[9] = L1210, read-out: Inhib of Synth, RNA, ED50
[10] = Mus musculus, P388, ip, read-out: Highest Mean T/C vs P388 in Mice

## COc1cccc2c1C(=O)c1c(O)c3c(c(O)c1C2=O)C[C@@](O)(C(=O)CO)C[C@@H]3O[C@H]1C[C@H](NCc2ccccc2)[C@H](O)[C@H](C)O1 [III, N-Benzyladriamycin]
Isolated helical DNA
  ΔTm: 11.3 °C
L1210 Cells [1]; [3]
  IC50: 650 nM
L1210 Cells [2]; [4]
  IC50: 90 nM
Leukemia P388; Mus musculus, P388, ip, q4d 5,9,13, 18.8 mg/kg (optimum dose), mean from 1 to 3 tests, read-out: Highest Mean T/C vs P388 in Mice
  response vs control in vivo at 18.8 mg/kg: 200%
Leukemia P388; [5]
  response vs control in vivo at 6.25 mg/kg: 224%

## COc1cccc2c1C(=O)c1c(O)c3c(c(O)c1C2=O)C[C@@](O)(C(C)O)C[C@@H]3O[C@H]1C[C@H](NCc2ccccc2)[C@H](O)[C@H](C)O1 (stereo partly shown) [II, N-Benzyl-13-dihydrodaunomycin]
Isolated helical DNA
  ΔTm: 6.25 °C
L1210 Cells [1]; [3]
  IC50: 1700 nM
L1210 Cells [2]; [4]
  IC50: 320 nM
Leukemia P388; [5]
  response vs control in vivo at 6.25 mg/kg: 226%

## COc1cccc2c1C(=O)c1c(O)c3c(c(O)c1C2=O)C[C@@](O)(C(O)CO)C[C@@H]3O[C@H]1C[C@H](NCc2ccccc2)[C@H](O)[C@H](C)O1 (stereo partly shown) [IV, N-Benzyl-13-dihydroadriamycin]
Isolated helical DNA
  ΔTm: 7.6 °C
L1210 Cells [1]; [3]
  IC50: 1400 nM
L1210 Cells [2]; [4]
  IC50: 290 nM
Leukemia P388; [6]
  response vs control in vivo at 37.5 mg/kg: 143%
Leukemia P388; Mus musculus, P388, ip, qd 1-9, 1.56 mg/kg (optimum dose), mean from 1 to 3 tests, read-out: Highest Mean T/C vs P388 in Mice
  response vs control in vivo at 1.56 mg/kg: 196%

## COc1cccc2c1C(=O)c1c(O)c3c(c(O)c1C2=O)C[C@@](O)(C(C)O)C[C@@H]3O[C@H]1C[C@H](N(Cc2ccccc2)Cc2ccccc2)[C@H](O)[C@H](C)O1 (stereo partly shown) [Compound VI, N,N-Dibenzyl-13-dihydrodaunomycin]
Isolated helical DNA
  ΔTm: 0.6 °C
L1210 Cells [1]; L1210 cells, DNA synthesis, (susp), read-out: Inhib of Synth, DNA, ED50 (susp)
  IC50: 220000 nM
L1210 Cells [2]; [4]
  IC50: 7600 nM
Leukemia P388; Mus musculus, P388, ip, q4d 5,9,13, 50 mg/kg (optimum dose), mean from 1 to 3 tests, read-out: Highest Mean T/C vs P388 in Mice
  response vs control in vivo at 50 mg/kg: 233%
Leukemia P388; Mus musculus, P388, ip, qd 1-9, 40 mg/kg (optimum dose), mean from 1 to 3 tests, read-out: Highest Mean T/C vs P388 in Mice
  response vs control in vivo at 40 mg/kg: 229%

## COc1cccc2c1C(=O)c1c(O)c3c(c(O)c1C2=O)C[C@@](O)(C(C)=O)C[C@@H]3O[C@H]1C[C@H](N(Cc2ccccc2)Cc2ccccc2)[C@H](O)[C@H](C)O1 [Compound V, N,N-Dibenzyldaunomycin]
Isolated helical DNA
  ΔTm: 1.35 °C
L1210 Cells [1]; [3]
  IC50: > 100000 nM
L1210 Cells [2]; [4]
  IC50: 10000 nM
Leukemia P388; [6]
  response vs control in vivo at 37.5 mg/kg: 227%
Leukemia P388; Mus musculus, P388, ip, qd 1-9, 25 mg/kg (optimum dose), mean from 1 to 3 tests, read-out: Highest Mean T/C vs P388 in Mice
  response vs control in vivo at 25 mg/kg: 259%
Leukemia P388; ip, mice
  activity against leukemia P388 in mice (in words): clearly the best

## COc1cccc2c1C(=O)c1c(O)c3c(c(O)c1C2=O)C[C@@](O)(C(=O)CO)C[C@@H]3O[C@H]1C[C@H](N)[C@H](O)[C@H](C)O1 [X, Adriamycin, reference compound]
Isolated helical DNA
  ΔTm: 13.4 °C
L1210 Cells [1]; [3]
  IC50: 1500 nM
L1210 Cells [2]; [4]
  IC50: 670 nM
Leukemia P388; [7]
  response vs control in vivo at 8 mg/kg: 157%
Leukemia P388; Mus musculus, P388, ip, qd 1-9, 1.0 mg/kg, mean from several dozen tests, SD up to ±40, read-out: Highest Mean T/C vs P388 in Mice
  response vs control in vivo at 1 mg/kg: 193%

## COc1cccc2c1C(=O)c1c(O)c3c(c(O)c1C2=O)C[C@@](O)(C(=O)CO)C[C@@H]3O[C@H]1C[C@H](N(Cc2ccccc2)Cc2ccccc2)[C@H](O)[C@H](C)O1 [Compound VII, N,N-Dibenzyladriamycin]
Isolated helical DNA
  ΔTm: -1.2 °C
L1210 Cells [1]; [8]
  IC50: 110000 nM
L1210 Cells [2]; [9]
  IC50: 4800 nM
Leukemia P388; [10]
  response vs control in vivo at 6.25 mg/kg: 175%

## COc1cccc2c1C(=O)c1c(O)c3c(c(O)c1C2=O)C[C@@](O)(C(C)=O)C[C@@H]3O[C@H]1C[C@H](N)[C@H](O)[C@H](C)O1 [IX, Daunomycin, reference compound]
L1210 Cells [1]; [3]
  IC50: 1000 nM
L1210 Cells [2]; [4]
  IC50: 300 nM
Leukemia P388; [7]
  response vs control in vivo at 8 mg/kg: 134%
Leukemia P388; Mus musculus, P388, ip, qd 1-9, 0.5 mg/kg, mean from several dozen tests, SD up to ±40, read-out: Highest Mean T/C vs P388 in Mice
  response vs control in vivo at 0.5 mg/kg: 167%

## COc1cccc2c1C(=O)c1c(O)c3c(c(O)c1C2=O)C[C@@](O)(C(C)=O)C[C@@H]3O[C@H]1C[C@H](NCc2ccccc2)[C@H](O)[C@H](C)O1 [I, N-Benzyldaunomycin]
Isolated helical DNA
  ΔTm: 10.2 °C
L1210 Cells [1]; [8]
  IC50: 1600 nM
L1210 Cells [2]; [9]
  IC50: 170 nM
Leukemia P388; [10]
  response vs control in vivo at 6.25 mg/kg: 187%
  response vs control in vivo at 18.8 mg/kg: 226%
